Results as given in patent US20090317436A1, “COMPUTER DEVICES AND ACCESSORIES” (priority 2006, published 2009).

Assays:
Assay type in all cases: cell-based
[1] = tested on: Staphylococcus aureus NCTC 6571; experiment: Lethal photosensitization of S. aureus by photosensitizer-gold nanoparticle mixtures (Examples 2-8, Table 2), viable counting; settings: for effect of diluting the gold nanoparticles on killing of S. aureus: 2 nm gold nanoparticles; for enhancement of lethal photosensitization compared with TB in the absence of nanogold: 15 nm nanogold
Method: Gold nanoparticles of approximately 15 nm in diameter (batches NN1 and NN2 above) were mixed with an equal volume of aqueous toluidine blue O (TB) and left at room temperature for 15 minutes. TB was used at a final concentration of 1, 5, 10, 20 or 50 μM.
100 μl of the TB-gold mixture was added to 100 μl of a suspension of Staphylococcus aureus NCTC 6571 in phosphate buffered saline (PBS) (adjusted to an optical density of 0.05), and samples were irradiated with a fluorescent white light (28 W) for 10 minutes. S. aureus+TB only, and S. aureus+PBS, without photosensitizer or nanogold were used as controls. The final concentration of nanogold used was 1×10^15 particles/ml.
After irradiation, the numbers of surviving bacteria were enumerated by viable counting.
The method of Example 2 was repeated using gold nanoparticles of 2 nm diameter (British Biocell International). The final concentration of nanogold used was 4×10^13 particles/ml. TB was used at a final concentration of 10, 20 or 50 μM.
Experiments were performed as for Example 3, with the following modifications: Prior to mixing with the photosensitizer, the gold nanoparticles were either left undiluted, or diluted 1 in 10 or 1 in 100 in sterile, distilled water. The nanoparticles were then added to TB (final concentration 20 μM).
The samples were then illuminated for 30 seconds using a fibre optic white light source (Schott KL200). The surviving bacteria were enumerated by viable counting as before.
Example 4 was repeated using methylene blue (MB; 20 μM) as the photosensitizer.
Example 5 was repeated using 2 nm gold nanoparticles (British Biocell International).
Example 6 was repeated using tin chlorin e6 (SnCe6; 20 μg/ml) as the photosensitizer. The illumination time was 10 minutes. […]

[2] = tested on: Staphylococcus aureus NCTC 6571; experiment: Lethal photosensitization of S. aureus by toluidine blue/gold nanoparticle mixture (Example 1), viable counting
Method: Gold nanoparticles (2.0 nm diameter; British Biocell International) in water (15×10^13 particles per ml) were mixed with an equal volume of an aqueous solution of toluidine blue O (40 μM) and left at room temperature for 15 minutes. 100 μl of the gold-TB solution was added to 100 μl of a suspension of Staphylococcus aureus NCTC 6571 in phosphate buffered saline (PBS) and this was irradiated with white light from an 18 W fluorescent white lamp for 10 minutes. Controls consisted of: • (i) TB (final concentration=10 μM) and bacteria, irradiated for the same period of time, • (ii) nanogold (diluted 1:1 with water) and bacteria, irradiated for the same period of time, • (iii) bacteria without TB or nanogold, not irradiated (“control”).
After irradiation, the number of surviving bacteria was determined by viable counting.

[3] = tested on: Staphylococcus aureus NCTC 6571; experiment: Lethal photosensitization of S. aureus using TBO-tiopronin-gold nanoparticle conjugate (Examples 2-5, Table 3); settings: Example 4, any length of time
[4] = tested on: Staphylococcus aureus NCTC 6571; experiment: Lethal photosensitization of S. aureus using a different TBO-tiopronin-gold nanoparticle conjugate (Examples 6-7, Table 4); settings: white light 30 mins; free TBO control
[5] = tested on: Staphylococcus aureus NCTC 6571; experiment: Lethal photosensitization of S. aureus by photosensitizer-gold nanoparticle mixtures (Examples 2-8, Table 2), viable counting; settings: Example 2

## CN(C)c1ccc2nc3ccc(=[N+](C)C)cc-3sc2c1 [Methylene blue, methylene blue]
[1]; 20 mM with 2 nm gold nanoparticles at 4×10^11 to 4×10^13 particles/ml
  effectiveness of combination against Staphylococcus aureus: particularly effective
[1]; 20 mM with 15 nm gold nanoparticles at 1×10^13 to 1×10^15 particles/ml
  effectiveness of combination against Staphylococcus aureus: particularly effective
[1]; Example 5, photosensitiser 20 mM, gold nanoparticles 15 nm, 1 × 10^13 particles/ml, fibre optic white light 30 seconds
  Result (% kill class): **** (99-100% kill)
[1]; Example 5, photosensitiser 20 mM, gold nanoparticles 15 nm, 1 × 10^14 particles/ml, fibre optic white light 30 seconds
  Result (% kill class): **** (99-100% kill)
[1]; Example 5, photosensitiser 20 mM, gold nanoparticles 15 nm, 1 × 10^15 particles/ml, fibre optic white light 30 seconds
  Result (% kill class): **** (99-100% kill)
[1]; Example 6, MB 20 μM
  effect of diluting the gold nanoparticles on killing of S. aureus: enhanced the killing of S. aureus slightly
[1]; Example 6, photosensitiser 20 mM, gold nanoparticles 2 nm, 4 × 10^11 particles/ml, fibre optic white light 30 seconds
  Result (% kill class): **** (99-100% kill)
[1]; Example 6, photosensitiser 20 mM, gold nanoparticles 2 nm, 4 × 10^12 particles/ml, fibre optic white light 30 seconds
  Result (% kill class): **** (99-100% kill)
[1]; Example 6, photosensitiser 20 mM, gold nanoparticles 2 nm, 4 × 10^13 particles/ml, fibre optic white light 30 seconds
  Result (% kill class): **** (99-100% kill)

## C=CC1=C(C)C2=CC3=NC(=C(CC(=O)[O-])C4=NC(=C(C)C4=C([O-])[O-])C=c4[n-]c(c(C)c4CC)=CC1=N2)C(CCC(=O)[O-])C3C.[H+].[Sn+4] (stereo not shown) [Tin chlorine6, tin chlorin e6]
[1]; 20 mg/ml with 2 nm gold nanoparticles at 4×10^11 particles/ml
  effectiveness of combination against Staphylococcus aureus: particularly effective
[1]; Example 7, SnCe6 20 μg/ml, illumination 10 minutes
  effect of diluting the gold nanoparticles on killing of S. aureus: enhanced the killing of S. aureus
[1]; Example 7, photosensitiser 20 m/ml, gold nanoparticles 2 nm, 4 × 10^11 particles/ml, illumination 10 minutes
  Result (% kill class): *** (95-99% kill)
[1]; Example 7, photosensitiser 20 m/ml, gold nanoparticles 2 nm, 4 × 10^12 particles/ml, illumination 10 minutes
  Result (% kill class): ** (90-95% kill)
[1]; Example 7, photosensitiser 20 m/ml, gold nanoparticles 2 nm, 4 × 10^13 particles/ml, illumination 10 minutes
  Result (% kill class): — (less than 50% kill)

## Cc1cc2nc3ccc(N(C)C)cc3[s+]c2cc1N.[Cl-] [Toluidine blue, toluidine blue O]
[2]; 18 W fluorescent white lamp 10 minutes, TB final 10 μM, 2.0 nm gold nanoparticles
  % Kill: 93.7%
[2]; preliminary experiments, 30 minutes light exposure
  kill of the bacterial suspensions: total kills
[2]; surviving bacteria after 18 W fluorescent white lamp 10 minutes, TB final 10 μM, 2.0 nm gold nanoparticles
  S. aureus (cfu/ml): 8570000 cfu/ml
[1]; 20 mM with 2 nm gold nanoparticles at 4×10^13 particles/ml
  effectiveness of combination against Staphylococcus aureus: particularly effective
[1]; 2 nm nanogold particles, 10 μM or 50 μM TB
  enhancement of lethal photosensitization: not when either 10 μM or 50 μM TB was used
[1]; 2 nm nanogold particles, 20 μM TB
  enhancement of lethal photosensitization: enhancement of lethal photosensitization was evident
[1]; TB 1 μM
  enhancement of lethal photosensitization compared with TB in the absence of nanogold: little enhancement
[1]; TB 5, 10 and 20 μM
  enhancement of lethal photosensitization compared with TB in the absence of nanogold: enhancement was evident
[1]; TB 10 and 20 μM
  enhancement of lethal photosensitization compared with TB in the absence of nanogold: Enhancement was greatest
[1]; 20 to 50 mM with 15 nm gold nanoparticles at 1×10^14 to 1×10^15 particles/ml
  effectiveness of combination against Staphylococcus aureus: particularly effective
[1]; Example 2, photosensitiser 1 mM, gold nanoparticles 15 nm, 1 × 10^15 particles/ml, fluorescent white light (28 W) 10 minutes
  Result (% kill class): — (less than 50% kill)
[1]; Example 2, photosensitiser 5 mM, gold nanoparticles 15 nm, 1 × 10^15 particles/ml, fluorescent white light (28 W) 10 minutes
  Result (% kill class): * (50-90% kill)
[1]; Example 2, photosensitiser 20 mM, gold nanoparticles 15 nm, 1 × 10^15 particles/ml, fluorescent white light (28 W) 10 minutes
  Result (% kill class): **** (99-100% kill)
[1]; Example 2, photosensitiser 50 mM, gold nanoparticles 15 nm, 1 × 10^15 particles/ml, fluorescent white light (28 W) 10 minutes
  Result (% kill class): **** (99-100% kill)
[1]; Example 2, with nanogold, TB 20 and 50 μM
  enhancement of lethal photosensitization: enhancement was greatest
[1]; Example 3, photosensitiser 10 mM, gold nanoparticles 2 nm, 4 × 10^13 particles/ml, fluorescent white light (28 W) 10 minutes
  Result (% kill class): * (50-90% kill)
[1]; Example 3, photosensitiser 20 mM, gold nanoparticles 2 nm, 4 × 10^13 particles/ml, fluorescent white light (28 W) 10 minutes
  Result (% kill class): **** (99-100% kill)
[1]; Example 3, photosensitiser 50 mM, gold nanoparticles 2 nm, 4 × 10^13 particles/ml, fluorescent white light (28 W) 10 minutes
  Result (% kill class): * (50-90% kill)
[1]; Example 4, TB 20 μM, nanoparticles diluted 1 in 10, white light 30 seconds
  enhancement compared with undiluted nanogold: greater enhancement
[1]; Example 4, photosensitiser 20 mM, gold nanoparticles 15 nm, 1 × 10^14 particles/ml, fibre optic white light 30 seconds
  Result (% kill class): **** (99-100% kill)
[1]; Example 4, photosensitiser 20 mM, gold nanoparticles 15 nm, 1 × 10^15 particles/ml, fibre optic white light 30 seconds
  Result (% kill class): *** (95-99% kill)
[3]
  effect when irradiated with white light: no effect
[4]
  kills of the organism (in words): significant kills of the organism only at a concentration of 2.0 μm
[5]; photosensitiser 100 mM, gold nanoparticles 15 nm, 1 × 10^15 particles/ml, fluorescent white light (28 W) 10 minutes
  Result (% kill class): ** (90-95% kill)
[5]; with nanogold, TB 10 or 100 μM
  enhancement of lethal photosensitization: little enhancement

## nile blue sulphate
[1]; 20 to 50 mM with 2 nm gold nanoparticles at 4×10^13 particles/ml
  effectiveness of combination against Staphylococcus aureus: particularly effective
[1]; Example 8, photosensitiser 10 mM, gold nanoparticles 2 nm, 4 × 10^13 particles/ml, illuminated 30 minutes
  Result (% kill class): *** (95-99% kill)
[1]; Example 8, photosensitiser 20 mM, gold nanoparticles 2 nm, 4 × 10^13 particles/ml, illuminated 30 minutes
  Result (% kill class): **** (99-100% kill)
[1]; Example 8, photosensitiser 50 mM, gold nanoparticles 2 nm, 4 × 10^13 particles/ml, illuminated 30 minutes
  Result (% kill class): **** (99-100% kill)
